Results taken from paper PMC2912835 (Journal of Experimental & Clinical Cancer Research : CR, 2010).

Key:
Kit = tested on: Kit; design: method as in PMID 16951187; conditions: biochemical assays; read-out: IC50, inhibition of Kit activity; cited from earlier work
Kit D816V mutant = molecular target: T1, Kit D816V mutant (Homo sapiens, UniProt P10721, D816V); assay: Cell-based Kit autophosphorylation assay, D816V mutant; conditions: stably transfected CHO cells, up to 3000 nM
T1 construct: human wild-type KIT to yield full-length, mutant constructs; expressed in transfected cells; host or cells: AM-1/D CHO cells, stably transfected
Protocol: (§1) CHO cells stably transfected with wild-type or mutant isoforms of KIT were seeded in a 96-well tissue culture plate at a density of 2 × 10^4 cells per well. For stem cell factor (SCF) characterization experiments, cells were stimulated with serial dilutions of SCF for varying times. […] Cell lines transfected with activating KIT mutants were not stimulated with SCF in IC50 experiments. Cells were washed with phosphate-buffered saline and lysed in RIPA buffer (50 mM Tris, pH 7; 150 mM NaCl, 1% Igepal, 0.5% sodium deoxycholate, 0.1% SDS, 300 μM activated sodium vanadate, 1× protease inhibitor cocktail) for 30 minutes at 4°C with shaking. Cell lysates were added to a 96-well DELFIA microplate (PerkinElmer Inc.) coated with anti-Kit antibody (1 μg per well; AF332, R&D Systems, Inc.; Minneapolis, MN) and incubated for 2 hours. Lysates were then removed and the plate was washed 3 times with DELFIA wash buffer (PerkinElmer Inc.). […] The plate was then washed 3 times with DELFIA wash buffer before 0.01 μg of Eu-N1-labeled anti-mouse antibody (Cat. # AD0124, PerkinElmer Inc.) was added to each well. The plate was again incubated at room temperature for 1 hour and then washed 3 times with DELFIA wash buffer before the signal was detected by adding DELFIA enhancement buffer (PerkinElmer Inc.) to each well.

[1] = tested on: Kit activity (hair depigmentation); assay: In vivo hair depigmentation assay (surrogate marker of Kit activity); conditions: female C57B6 mice
Protocol: Female C57B6 mice (6 to 8 weeks old; 20 to 30 g; Charles River Laboratories, Wilmington, MA) were anesthetized, and an area of skin 2 × 2 cm on the right flank was depilated. […] On day 21, photographs were taken for assessment of hair depigmentation. The same patch of skin was depilated again on day 28, and photographs for assessment of depigmentation were taken on day 35. All animal experimental procedures were conducted in accordance with the guidelines of the Amgen Animal Care and Use Committee and the Association for Assessment and Accreditation of Laboratory Animal Care standards.

Kit V560D/V654A mutant = molecular target: T2, Kit V560D/V654A mutant (Homo sapiens, UniProt P10721, V560D/V654A); assay: Cell-based Kit autophosphorylation assay, V560D/V654A mutant; conditions: autophosphorylation IC50 […] nM versus […] nM
T2 construct: human wild-type KIT to yield full-length, mutant constructs; expressed in transfected cells; host or cells: AM-1/D CHO cells, stably transfected
Protocol: as §1

PDGFR = tested on: PDGFR; design: method as in PMID 16951187; conditions: biochemical assays; read-out: IC50, inhibition of PDGFR activity; cited from earlier work
[2] = tested on: Ba/F3 cells stably transfected with KIT V560D/V654A; assay: cells; conditions: Mus musculus, BaF3, 24 h, read-out: IC50 of Stably Transfected Ba/F3 Cell Survival
Protocol: (§2) The ability of Kit mutants to act as survival factors was assessed in Kit-dependent Ba/F3 cells. Ba/F3 cells stably transfected with various KIT mutants were seeded in a 96-well tissue culture plate at a density of 5 × 10^3 cells per well. […] Cell viability was assessed by measuring the level of adenosine triphosphate using ATPlite assays (PerkinElmer Life Sciences, Boston, MA). Reconstituted ATPLite 1-step solution was added to each well followed by incubation with shaking for 2 minutes. The plate was read on a Victor Model 1420 multilabel counter (PerkinElmer Inc.) under the luminescence setting.

[3] = tested on: Ba/F3 cells stably transfected with KIT V560D/T670I; assay: cells; conditions: Mus musculus, BaF3, 24 h, read-out: IC50 of Stably Transfected Ba/F3 Cell Survival
Protocol: as §2

[4] = tested on: Ba/F3 cells stably transfected with KIT V560D; assay: cells; conditions: Mus musculus, BaF3, 24 h, read-out: IC50 of Stably Transfected Ba/F3 Cell Survival
Protocol: as §2

[5] = tested on: Ba/F3 cells stably transfected with KIT AYins503-504; assay: cells; conditions: Mus musculus, BaF3, 24 h, read-out: IC50 of Stably Transfected Ba/F3 Cell Survival
Protocol: as §2

[6] = tested on: Ba/F3 cells stably transfected with KIT Δ552-559; assay: cells; conditions: Mus musculus, BaF3, 24 h, read-out: IC50 of Stably Transfected Ba/F3 Cell Survival
Protocol: as §2

[7] = tested on: Ba/F3 cells stably transfected with KIT Y823D; assay: cells; conditions: Mus musculus, BaF3, 24 h, read-out: IC50 of Stably Transfected Ba/F3 Cell Survival
Protocol: as §2

[8] = tested on: Kit (hair depigmentation); design: method as in PMID 12966161; conditions: mice; cited from earlier work

Compound | IC50 (Kit) [nM] | Inhibition of autophosphorylation of the D816V mutant (Kit D816V mutant) | Hair depigmentation of regrown hair ([1]; 75 mg/kg oral twice daily for 21 days after depilation, assessed day 21, vs vehicle) | Hair depigmentation of regrown hair after cessation of treatment ([1]; treatment stopped day 21, depilated again day 28, assessed day 35) | Loss of activity, V560D/V654A double mutant compared with V560D alone (Kit V560D/V654A mutant) | IC50 (PDGFR) [nM] | IC50 [2] [nM] | IC50 [3] [nM] | IC50 [4] [nM] | IC50 [5] [nM] | IC50 [6] [nM] | IC50 [7] [nM] | Hair depigmentation [8]
CC1(C)CNc2cc(NC(=O)c3cccnc3NCc3ccncc3)ccc21 [Motesanib] | […] | neither motesanib nor imatinib inhibited | markedly depigmented | no apparent depigmentation | fifteen-fold loss | 84 | 91 | 180 | 3 | 11 | 0.4 | 62 | –
CCN(CC)CCNC(=O)c1c(C)[nH]c(/C=C2\C(=O)Nc3ccc(F)cc32)c1C [sunitinib] | – | – | – | – | – | – | – | – | – | – | – | – | Depigmentation has previously been observed
